# Results published in publication PMC2099433, “The binding site for neohesperidin dihydrochalcone at the human sweet taste receptor” (BMC Structural Biology, 2007).
# Numbering of substitutions follows the chain as printed. Where a SMILES comes first, the peptide text is derived from it.
# Legend:
# [1] = biological target: T1, hTAS1R2 + hTAS1R3 V621I^2.58 (Homo sapiens, UniProt Q7RTX0+Q8TE23, V621I); experiment: Calcium response (FLIPR), hTAS1R3 mutant coexpressed with hTAS1R2; type: cell-based; conditions: variant V621I^2.58; for EC50: (>) EC50 not calculable because saturation is not reached; for Emax: read-out: maximal signal (% of wt)
# T1 construct: expressed in transfected cells; host or cells: HEK293T cells stably expressing G16Gust44
# T1 sequence (Q8TE23 20-839): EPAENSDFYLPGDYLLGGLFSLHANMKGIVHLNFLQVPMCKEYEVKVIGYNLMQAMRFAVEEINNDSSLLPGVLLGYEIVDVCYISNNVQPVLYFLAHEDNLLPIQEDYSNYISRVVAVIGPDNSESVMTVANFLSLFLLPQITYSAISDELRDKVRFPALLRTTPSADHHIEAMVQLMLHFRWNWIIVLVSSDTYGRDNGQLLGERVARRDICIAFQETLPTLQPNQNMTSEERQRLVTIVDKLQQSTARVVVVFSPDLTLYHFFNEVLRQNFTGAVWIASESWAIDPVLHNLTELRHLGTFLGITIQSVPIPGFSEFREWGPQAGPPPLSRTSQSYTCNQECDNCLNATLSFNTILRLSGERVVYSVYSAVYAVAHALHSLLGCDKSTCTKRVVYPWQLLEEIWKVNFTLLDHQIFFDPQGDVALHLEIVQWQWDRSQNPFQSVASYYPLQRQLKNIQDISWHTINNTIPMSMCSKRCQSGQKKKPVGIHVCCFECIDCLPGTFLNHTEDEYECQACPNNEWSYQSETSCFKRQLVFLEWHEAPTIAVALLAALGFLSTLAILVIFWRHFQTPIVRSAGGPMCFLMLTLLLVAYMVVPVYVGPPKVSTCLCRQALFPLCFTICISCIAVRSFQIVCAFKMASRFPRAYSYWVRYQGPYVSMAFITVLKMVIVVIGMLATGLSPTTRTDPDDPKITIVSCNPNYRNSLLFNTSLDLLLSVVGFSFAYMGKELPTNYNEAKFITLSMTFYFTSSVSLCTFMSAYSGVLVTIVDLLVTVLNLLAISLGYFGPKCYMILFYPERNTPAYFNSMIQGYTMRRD
# T1 sequence (Q7RTX0 21-852 V621I): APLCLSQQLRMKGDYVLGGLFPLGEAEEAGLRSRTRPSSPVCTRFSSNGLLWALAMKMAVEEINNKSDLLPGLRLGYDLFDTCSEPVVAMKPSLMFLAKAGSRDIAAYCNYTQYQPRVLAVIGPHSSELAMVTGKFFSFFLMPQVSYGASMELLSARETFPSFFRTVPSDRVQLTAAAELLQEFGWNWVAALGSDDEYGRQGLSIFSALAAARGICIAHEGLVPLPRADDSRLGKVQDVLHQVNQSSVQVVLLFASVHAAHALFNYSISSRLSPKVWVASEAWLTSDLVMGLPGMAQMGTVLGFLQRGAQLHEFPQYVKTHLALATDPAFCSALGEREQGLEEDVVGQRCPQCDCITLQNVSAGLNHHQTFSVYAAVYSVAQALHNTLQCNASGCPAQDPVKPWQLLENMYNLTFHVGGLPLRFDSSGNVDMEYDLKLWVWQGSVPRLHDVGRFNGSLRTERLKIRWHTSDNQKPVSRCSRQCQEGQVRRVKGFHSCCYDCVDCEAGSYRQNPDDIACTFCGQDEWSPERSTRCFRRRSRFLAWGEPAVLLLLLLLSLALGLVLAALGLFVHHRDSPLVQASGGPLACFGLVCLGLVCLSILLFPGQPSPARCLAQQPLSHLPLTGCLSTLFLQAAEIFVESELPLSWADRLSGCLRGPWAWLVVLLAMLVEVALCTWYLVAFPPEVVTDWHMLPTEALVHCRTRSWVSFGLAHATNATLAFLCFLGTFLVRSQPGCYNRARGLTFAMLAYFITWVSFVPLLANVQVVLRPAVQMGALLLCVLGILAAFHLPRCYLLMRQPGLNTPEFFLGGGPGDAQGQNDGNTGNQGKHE
# Method in brief: (§1)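 Calcium mobilization was measured by FLIPR in Fluo4-AM-loaded HEK293T cells coexpressing G16Gust44 with the tagged receptor pair. Signals had mock responses removed and were given as ΔF/F.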
# [2] = biological target: T2, hTAS1R2 + hTAS1R3 H641A^3.33 (Homo sapiens, UniProt Q7RTX0+Q8TE23, H641A); experiment: as above; type: cell-based; conditions: variant H641A^3.33; for Emax: read-out: maximal signal (% of wt)
# T2 construct: expressed in transfected cells; host or cells: HEK293T cells stably expressing G16Gust44
# T2 sequence (Q8TE23 20-839): T1 sequence (Q8TE23 20-839)
# T2 sequence (Q7RTX0 21-852 H641A): T1 sequence (Q7RTX0 21-852 V621I) with I601V, H621A
# Method in brief: as §1
EC50 [1],Emax [1],EC50 [2],Emax [2],SMILES
1900 ± 400 µM,61 ± 1%,1800 ± 400 µM,79 ± 70%,COC(=O)[C@H](Cc1ccccc1)NC(=O)[C@@H](N)CC(=O)O [aspartame] (HELM PEPTIDE1{D.F.[CO[*:1]]}$$$$V2.0)
> 1000 µM,60 ± 14%,1200 ± 400 µM,57 ± 22%,"COc1ccc(CCC(=O)c2c(O)cc(O[C@@H]3O[C@H](CO)[C@@H](O)[C@H](O)[C@H]3O[C@@H]3O[C@@H](C)[C@H](O)[C@@H](O)[C@H]3O)cc2O)cc1O [NHDC, neohesperidin dihydrochalcone]"
